Assay results: article PMC7106896, “Synthesis and biological evaluation of 2-(4-methylsulfonyl phenyl) indole derivatives: multi-target compounds with dual antimicrobial and anti-inflammatory activities” (BMC Chemistry, 2020)
Values after ≈ are worked out from the molar mass of the structure shown. Values joined by “and” are separate entries in the source; they are usually repeats but may differ in a detail not shown here. Equal values may be shown once.

Experiments:
C. albicans = assay: Minimal inhibitory concentration measurement; type: cell-based; settings: Candida albicans; read-out: MIC Ca (C. albicans)
Procedure: (§3) The antimicrobial and antifungal screening was performed according to CO-ADD (The Community for Antimicrobial Drug Discovery) procedures [27].

[1] = tested on: C. neoformans var. grubii; assay: Minimal inhibitory concentration measurement; type: cell-based; settings: Cryptococcus neoformans; read-out: MIC Cn (C. neoformans var. grubii)
Procedure: as §3

MRSA = assay: Minimal inhibitory concentration measurement; type: cell-based; settings: Staphylococcus aureus, read-out: MIC Sa (MRSA)
Procedure: as §3

E. coli = assay: Minimal inhibitory concentration measurement; type: cell-based; settings: Escherichia coli; read-out: MIC Ec (E. coli)
Procedure: as §3

P. aeruginosa = assay: Minimal inhibitory concentration measurement; type: cell-based; settings: Pseudomonas aeruginosa; read-out: MIC Pa (P. aeruginosa)
Procedure: as §3

A. baumannii = assay: Minimal inhibitory concentration measurement; type: cell-based; settings: Acinetobacter baumannii; read-out: MIC Ab (A. baumannii)
Procedure: as §3

[2] = tested on: Acinetobacter baumannii (ATCC 19606); assay: Antimicrobial screening (CO-ADD), growth inhibition at single concentration; type: cell-based; settings: ATCC19606, at 32 µg/mL concentration, read-out: growth inhibition % Ab (A. baumannii)
Procedure: (§1) The antimicrobial study was performed by CO-ADD (The Community for Antimicrobial Drug Discovery), funded by the Wellcome Trust (UK) and The University of Queensland (Australia). Evaluation of all synthesized compounds for their antimicrobial activities was done against five pathogenic bacteria, methicillin-resistant Staphylococcus aureus (ATCC 43300) as Gram-positive bacteria, Escherichia coli (ATCC 25922), Klebsiella pneumonia (ATCC 700603), Acinetobacter baumannii (ATCC 19606) and Pseudomonas aeruginosa (ATCC 27853) as Gram-negative bacteria and antifungal activity against two pathogenic fungal strains Candida albicans (ATCC 90028) and Cryptococcus neoformans var. grubii (H99; ATCC 208821) (Table 1).

[3] = tested on: Escherichia coli (ATCC 25922); assay: as above; type: cell-based; settings: ATCC25922, at 32 µg/mL concentration, read-out: growth inhibition % Ec (E. coli)
Procedure: as §1

[4] = tested on: Klebsiella pneumonia (ATCC 700603); assay: as above; type: cell-based; settings: Klebsiella pneumoniae, ATCC700603; at 32 µg/mL concentration; read-out: growth inhibition % Kp (K. pneumoniae)
Procedure: as §1

[5] = tested on: Pseudomonas aeruginosa (ATCC 27853); assay: as above; type: cell-based; settings: ATCC27853, at 32 µg/mL concentration, read-out: growth inhibition % Pa (P. aeruginosa)
Procedure: as §1

[6] = tested on: methicillin-resistant Staphylococcus aureus (ATCC 43300); assay: as above; type: cell-based; settings: ATCC 43300 / MRSA, at 32 µg/mL concentration, read-out: growth inhibition % Sa (MRSA)
Procedure: as §1

[7] = tested on: Candida albicans (ATCC 90028); assay: Antifungal screening (CO-ADD), growth inhibition at single concentration; type: cell-based; settings: ATCC90028, at 32 µg/mL concentration, read-out: growth inhibition % Ca (C. albicans)
Procedure: as §1

[8] = Cytotoxicity against human embryonic kidney cell line; type: cell-based; settings: read-out: CC50 (concentration at 50% cytotoxicity)
Procedure: (§2) The safety margin for the active compounds to human cells was determined through cytotoxicity against human embryonic kidney cell line and hemolysis of human red blood cells. The tested compounds 7a, 7g, and 7i were tolerated and non-toxic to human cells as the cytotoxic and hemolytic dose was higher than the therapeutic dose (Table 2).

human red blood cells = assay: Hemolysis of human red blood cells; type: cell-based
Procedure: as §2

Ovine COX-1 = molecular target: T1, Ovine COX-1 (Ovis aries, UniProt P05979); assay: In vitro COX inhibition colorimetric assay; type: biochemical
T1 construct: purchased Cayman Chemical, Ann Arbor, MI, USA 760111
T1 sequence (P05979 25-600): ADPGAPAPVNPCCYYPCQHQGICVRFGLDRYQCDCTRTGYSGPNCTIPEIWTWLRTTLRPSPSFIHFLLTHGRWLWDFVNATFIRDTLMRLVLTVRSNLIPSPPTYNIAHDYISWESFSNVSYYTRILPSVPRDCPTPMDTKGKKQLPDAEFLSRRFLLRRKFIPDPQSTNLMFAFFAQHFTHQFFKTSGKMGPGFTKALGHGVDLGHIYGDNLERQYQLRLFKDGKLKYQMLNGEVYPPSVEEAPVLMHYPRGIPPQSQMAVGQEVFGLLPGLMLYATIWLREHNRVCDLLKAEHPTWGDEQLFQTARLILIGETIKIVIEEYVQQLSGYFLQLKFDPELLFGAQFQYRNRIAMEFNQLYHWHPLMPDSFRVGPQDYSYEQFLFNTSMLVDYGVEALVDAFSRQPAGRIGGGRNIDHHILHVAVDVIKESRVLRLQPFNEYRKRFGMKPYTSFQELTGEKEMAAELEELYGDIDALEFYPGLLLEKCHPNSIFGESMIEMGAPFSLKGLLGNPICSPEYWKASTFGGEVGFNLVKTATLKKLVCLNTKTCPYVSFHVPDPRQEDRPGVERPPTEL

human recombinant COX-2 = assay: In vitro COX inhibition colorimetric assay; type: biochemical; settings: COX-1 IC50/COX-2 IC50
[9] = tested on: carrageenan-induced rat paw edema; assay: Carrageenan-induced rat paw edema assay; type: in vivo; settings: for Edema thickness (mm) ± SEM: n = 4
Procedure: Pretreatment of rats with compounds 7a–k, 8a–c, and 9a–c before injection with carrageenan in rat paw which induces inflammation and then the percentage of paw edema reduction was measured after certain hours according to previously reported procedures.

[10] = tested on: MRSA bacteria and E. coli, K. pneumoniae, P. aeruginosa, and A. baumannii; assay: Antibacterial screening, result pooled over the five bacteria; type: cell-based; settings: read-out: growth inhibition, range over MRSA, E. coli, K. pneumoniae, P. aeruginosa and A. baumannii
Procedure: as §1

| SMILES | MIC (C. albicans) | MIC [1] | MIC (MRSA) | MIC (E. coli) | MIC (P. aeruginosa) | MIC (A. baumannii) | inhibition at 32 µg/mL [2] | inhibition at 32 µg/mL [4] | inhibition at 32 µg/mL [5] | inhibition at 32 µg/mL [6] | inhibition at 32 µg/mL [7] | IC50 (Ovine COX-1) | Selectivity index (SI) (human recombinant COX-2) | Edema inhibition % ([9]; 1 h) | Edema thickness (mm) ± SEM ([9]; 1 h) | Edema inhibition % ([9]; 3 h) | Edema thickness (mm) ± SEM ([9]; 3 h) | Edema inhibition % ([9]; 6 h) | Edema thickness (mm) ± SEM ([9]; 6 h) | melting point | other results |
| --- | --- | --- | --- | --- | --- | --- | --- | --- | --- | --- | --- | --- | --- | --- | --- | --- | --- | --- | --- | --- | --- |
| C[C@@H]1[C@H](O)[C@@H](C)/C=C/C=C/C=C/C=C/C=C/C=C/C=C/[C@H](O[C@@H]2O[C@H](C)[C@@H](O)[C@H](N)[C@@H]2O)C[C@@H]2O[C@](O)(C[C@@H](O)C[C@@H](O)[C@H](O)CC[C@@H](O)C[C@@H](O)CC(=O)O[C@H]1C)C[C@H](O)[C@H]2C(=O)O [Amphotericin B, amphotericin B, reference compound] | 1.56 µg/mL (≈ 1.69 µM) | 1.56 µg/mL (≈ 1.69 µM) | – | – | – | – | – | – | – | – | – | – | – | – | – | – | – | – | – | – | – |
| CO/N=C(\C(=O)N[C@@H]1C(=O)N2C(C(=O)O)=C(CSc3nc(=O)c(=O)[nH]n3C)CS[C@H]12)c1csc(N)n1 [Ceftriaxone, ceftriaxone, reference compound] | – | – | 32 µg/mL (≈ 57.7 µM) | 0.125 µg/mL (≈ 0.225 µM) | 32 µg/mL (≈ 57.7 µM) | 32 µg/mL (≈ 57.7 µM) | – | – | – | – | – | – | – | – | – | – | – | – | – | – | – |
| CS(=O)(=O)c1ccc(-c2[nH]c3ccccc3c2C=NNc2ccc(F)cc2)cc1 [Compound 7a, 3-((2-(4-Fluorophenyl)hydrazono)methyl)-2-(4-(methylsulfonyl)phenyl)-1H-indole] | > 32 µg/mL | > 32 µg/mL | 8 µg/mL (≈ 19.6 µM) | ≤ 0.25 µg/mL | 4 µg/mL (≈ 9.82 µM) | 16 µg/mL (≈ 39.3 µM) | 96.7% | 97.6% | 97.8% | 95.8% | 6.28% | 10.3 µM | 93.81 | 74.1% | 0.679 ± 0.03 mm | 88.7% | 0.250 ± 0.021 mm | 92% | 0.151 ± 0.007 mm | 204 to 206 °C | inhibition at 32 µg/mL [3]: 96.5%; CC50 [8]: > 32 µg/mL; HC10 (concentration at 10% hemolysis) (human red blood cells): > 32 µg/mL; inhibition at 32 µg/mL [10]: 85.8 to 97.8%; MIC Kp (K. pneumoniae) (K. pneumoniae): 8 µg/mL (≈ 19.6 µM) |
| CS(=O)(=O)c1ccc(-c2[nH]c3ccccc3c2C=NNc2ccc(S(N)(=O)=O)cc2)cc1 [Compound 7c, 4-(2-((2-(4-(Methylsulfonyl)phenyl)-1H-indol-3-yl)methylene)hydrazinyl)benzene sulfonamide] | – | – | – | – | – | – | 43.3% | 12.8% | 11.3% | 21.9% | 4.13% | 11.4 µM | 103.7 and 103.72 | 62.7% | 0.978 ± 0.071 mm | 81.2% | 0.419 ± 0.028 mm | 82.5% | 0.331 ± 0.011 mm | 203 to 204 °C | inhibition at 32 µg/mL [3]: 3.17% |
| Cc1ccc(NN=Cc2c(-c3ccc(S(C)(=O)=O)cc3)[nH]c3ccc(C)cc23)cc1 [Compound 7g, 5-Methyl-2-(4-(methylsulfonyl)phenyl)-3-((2-(p-tolyl)hydrazono)methyl)-1H-indole] | > 32 µg/mL | > 32 µg/mL | 1 µg/mL (≈ 2.4 µM) | ≤ 0.25 µg/mL | 1 µg/mL (≈ 2.4 µM) | 4 µg/mL (≈ 9.58 µM) | 85.8% | 87.5% | 94.6% | 96.2% | 4.88% | 7.9 µM | 39.50 | 58.5% | 1.088 ± 0.090 mm | 72.3% | 0.618 ± 0.010 mm | 67.4% | 0.618 ± 0.045 mm | 166 to 168 °C | inhibition at 32 µg/mL [3]: 86.4%; CC50 [8]: 4.2 µg/mL (≈ 10.1 µM); HC10 (concentration at 10% hemolysis) (human red blood cells): > 32 µg/mL; inhibition at 32 µg/mL [10]: 85.8 to 97.8%; MIC Kp (K. pneumoniae) (K. pneumoniae): 1 µg/mL (≈ 2.4 µM) |
| Cc1ccc(NN=Cc2c(-c3ccc(S(C)(=O)=O)cc3)[nH]c3ccc(F)cc23)cc1 [Compound 7k, 5-Fluoro-2-(4-(methylsulfonyl)phenyl)-3-((2-(p-tolyl)hydrazono)methyl)-1H-indole] | – | – | – | – | – | – | 31.4% | 8.77% | 2.23% | 28.2% | 1.79% | 8.24 µM | 39.20 | 55.7% | 1.162 ± 0.088 mm | 69.1% | 0.689 ± 0.011 mm | 66.3% | 0.638 ± 0.051 mm | 151 to 153 °C | – |
| CS(=O)(=O)c1ccc(-c2[nH]c3ccc(F)cc3c2-c2nc3cc(Cl)ccc3[nH]2)cc1 [Compound 8b, 5-Chloro-2-(5-fluoro-2-(4-(methylsulfonyl)phenyl)-1H-indol-3-yl)-1H-benzo[d] imidazole] | – | – | – | – | – | – | 22.4% | 6.56% | 14.5% | 11.3% | 13.2% | 9.41 µM | 62.73 | 52.1% | 1.256 ± 0.074 mm | 68.1% | 0.712 ± 0.066 mm | 76.2% | 0.451 ± 0.013 mm | 202 to 204 °C | – |
| CS(=O)(=O)c1ccc(-c2[nH]c3ccc(F)cc3c2C=NO)cc1 [Compound 9b, 5-Fluoro-2-(4-(methylsulfonyl)phenyl)-1H-indole-3-carbaldehyde oxime] | – | – | – | – | – | – | 33.3% | 9.23% | 7.9% | 10.3% | 2.47% | 9.42 µM | 44.85 | 66.2% | – | 80.5% | 0.700 ± 0.024 mm | 73.4% | 0.726 ± 0.055 mm | 226 to 228 °C | – |
